Reference: patent publication US20210321649A1, “METHOD FOR DETECTING MISHANDLING AND MISUSE OF FOOD PRODUCTS” (SECURITY MATTERS LTD., priority 2016, published 2021)

Experiment: Solubility of marking compounds in ethanol and water (Table 1)
Settings: for Solubility in Ethanol: solvent ethanol; for Solubility in water: solvent water

Solubility in Ethanol	Solubility in water	Substance
Soluble	Insoluble	Copper complexes chlorophylls [Copper complexes chlorophylls (E141)]
Soluble	Soluble	Vitamin B12
